US4311791A, “Automated kinetic determination of lactate dehydrogenase isoenzymes in serum” (priority 1980, dated 1982)

How the values were obtained:
LD from human liver [1] = target: T1, LD from human liver (Homo sapiens, UniProt P00338); experiment: Inhibition of LD activity in human liver extract by high pyruvate, without preincubation (present method); format: biochemical
T1 construct: Human tissue extracts were prepared by sonic disruption; from tissue; host or cells: human liver, crude extract (sonicated, supernatant of centrifugation)
Procedure: (§1) Preparation of tissue. Human tissue extracts were prepared by sonic disruption (at 4° l C. for 1 min.) of 1 g (wet weight) of tissue in 9 ml of potassium phosphate buffer (0.1 mol/liter, pH 7.0). The homogenates were centrifuged at 4° C. at 5×10^4 g for 10 min.; and the superiors were promptly examined for LD activity and stored at -80° C.
(§2) Assay for total LD activity. The measurements were at 340 nm and 25° C. in a Model 240 (Gilford Instrument, Oberlin, Ohio 44074) digital kinetic spectrophotometer when manual determinations were needed to supply data for calibration curves with purified enzymes or with tissue extracts, and for serum assays in the preliminary stages of developing the method. Sera were assayed at 25° C. in a centrifugal analyzer (GEMSAEC; Electronucleonics, Inc., Fairfield, N.J. 07006) after the optimum conditions were known to be suitable for manual determinations. For automated determinations 500 ul of pyruvate reaction mixture and 50 ul of serum (an 11-fold dilution of the serum) were required. Conditions for measuring total LD activity were: 0.34 mmol of pyruvate and 0.13 mmcl of NADH per liter of the phosphate buffer. The molar absorptivity 6.22×10^3 liter mol^-1 cm^-1 for NADH was used in calculating enzyme activity in IUB units.
(§3) Kinetic determination of isoenzymes. LD's are inhibited by their substrate, the H-type LD being inhibited by pyruvate to a greater extent than the M-type LD. This inhibition, related to the formation of an abortive ternary complex, was the basis of the method that has been used to distinguish the heart enzyme from the muscle enzyme after preincubation. […]

LD from human spleen [2] = experiment: Inhibition of human spleen LD, present method; format: biochemical; details: mean ± 2 SD, at least seven sources
Procedure: as §1, §2
(§4) Kinetic determination of isoenzymes. […]

H-type LD = experiment: Kinetic determination of isoenzymes: inhibition of human H-type LD without preincubation; format: biochemical; details: 5 mmol pyruvate and 0.13 mmol NADH per liter, phosphate buffer pH 7.0
Procedure: (§5) Kinetic determination of isoenzymes. LD's are inhibited by their substrate, the H-type LD being inhibited by pyruvate to a greater extent than the M-type LD. This inhibition, related to the formation of an abortive ternary complex, was the basis of the method that has been used to distinguish the heart enzyme from the muscle enzyme after preincubation.
(§6) Conditions for inhibiting the human LD activity without any preincubation were: 5 mmol of pyruvate and 0.13 mmol of NADH per liter of 100 l mmol/liter potassium phosphate buffer, pH 7.0.

LD from human brain [3] = experiment: Inhibition of human brain LD, present method; format: biochemical; details: mean ± 2 SD, at least seven sources
Procedure: as §1, §2, §4

LD from human brain [4] = details: previously reported, mean ± 2 SD; cited from earlier work
rabbit muscle LD = experiment: Activity/inhibition of crystalline rabbit muscle LD at high pyruvate; format: biochemical
Procedure: as §2
(§7) Assay conditions. Studies of the pH dependence of the inhibition of chicken heart LD at an initial substrate concentration of 3.4 mmol/liter pyruvate (control rate, 0.1 absorbance unit change per minute at 0.34 mmol/liter pyruvate) indicated the pH for maximum inhibition of LD activity to be pH 7, although pH 6.5 was also suitable for the inhibition. […]

LD from human muscle [5] = details: previously reported, mean ± 2 SD; cited from earlier work
LD from human muscle [6] = experiment: Inhibition of human muscle LD, present method; format: biochemical; details: mean ± 2 SD, at least seven sources
Procedure: as §1, §2, §4

LD from human spleen [7] = details: previously reported, mean ± 2 SD; cited from earlier work
LD from human kidney [8] = experiment: Inhibition of human kidney LD, present method; format: biochemical; details: mean ± 2 SD, at least seven sources
Procedure: as §1, §2, §4

LD from human kidney [9] = details: previously reported, mean ± 2 SD; cited from earlier work
chicken heart LD = chicken heart LD (Gallus gallus, UniProt P00337); experiment: Inhibition of chicken heart LD by pyruvate; format: biochemical; details: 3.4 mmol/liter pyruvate
Procedure: as §2, §7

LD from human heart [10] = target: T2, LD from human heart (Homo sapiens, UniProt P07195); details: previously reported, mean ± 2 SD; cited from earlier work
T2 construct: Human tissue extracts were prepared by sonic disruption; from tissue; host or cells: human heart, crude extract (sonicated, supernatant of centrifugation)

LD from human heart [11] = target: T2, LD from human heart; experiment: Inhibition of LD activity in human heart extract by high pyruvate, without preincubation (present method); format: biochemical
Procedure: as §1, §2, §3

LD from human liver [12] = target: T1, LD from human liver; details: previously reported, mean ± 2 SD; cited from earlier work
M-type LD = experiment: Kinetic determination of isoenzymes: inhibition of human M-type LD without preincubation; format: biochemical; details: 5 mmol pyruvate and 0.13 mmol NADH per liter, phosphate buffer pH 7.0
Procedure: as §5, §6

[13] = present method, mean ± 2 SD, at least seven sources

T2 sequence (P07195 2-334): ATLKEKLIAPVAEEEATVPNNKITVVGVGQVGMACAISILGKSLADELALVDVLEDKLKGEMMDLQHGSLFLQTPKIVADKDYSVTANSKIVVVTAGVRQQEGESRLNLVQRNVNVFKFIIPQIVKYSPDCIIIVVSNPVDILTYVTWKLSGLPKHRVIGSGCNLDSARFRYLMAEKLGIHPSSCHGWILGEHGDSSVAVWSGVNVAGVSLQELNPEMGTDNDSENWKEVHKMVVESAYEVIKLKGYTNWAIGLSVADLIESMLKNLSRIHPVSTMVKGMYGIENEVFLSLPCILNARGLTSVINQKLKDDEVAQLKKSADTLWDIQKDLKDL
Sequence of chicken heart LD (P00337 whole entry): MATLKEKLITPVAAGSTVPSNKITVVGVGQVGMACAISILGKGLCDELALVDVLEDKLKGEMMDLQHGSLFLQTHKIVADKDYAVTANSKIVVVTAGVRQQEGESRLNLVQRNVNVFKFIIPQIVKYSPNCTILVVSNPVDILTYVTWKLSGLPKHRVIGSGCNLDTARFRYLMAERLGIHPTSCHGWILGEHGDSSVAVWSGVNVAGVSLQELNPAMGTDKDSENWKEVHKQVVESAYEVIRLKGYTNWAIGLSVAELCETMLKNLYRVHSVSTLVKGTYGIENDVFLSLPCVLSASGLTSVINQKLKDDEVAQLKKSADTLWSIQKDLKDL

CC(=O)C(=O)[O-].[Na+] [pyruvate, Sodium pyruvate]
Percent inhibition, Liver (LD from human liver [1]; 5 mmol/liter pyruvate, pH 6): 53%
Percent inhibition, Liver (LD from human liver [1]; 5 mmol/liter pyruvate, pH 7): 20%
Percent inhibition, Liver (LD from human liver [1]; 5 mmol/liter pyruvate, pH 8, negative sign = increased rate): -19%
Percent inhibition, Liver (LD from human liver [1]; 10 mmol/liter pyruvate, pH 6): 65%
Percent inhibition, Liver (LD from human liver [1]; 10 mmol/liter pyruvate, pH 7): 50%
Percent inhibition, Liver (LD from human liver [1]; 10 mmol/liter pyruvate, pH 8, negative sign = increased rate): -14%
Percent inhibition, Present method, Liver (LD from human liver [1]; [13]): 17.6 ± 11.8%
Percent inhibition, Present method, Spleen (LD from human spleen [2]): 43.5 ± 9.0%
inhibition of the H-type LD (H-type LD): more than 50%
Percent inhibition, Present method, Brain (LD from human brain [3]): 50.6 ± 8.4%
Percent inhibition, Preincubation method, Brain (LD from human brain [4]): 59.0 ± 6.6%
reaction rate, % of the maximum velocity (rabbit muscle LD; 3.4 mmol/liter pyruvate): 114%
inhibition of rabbit muscle LD (rabbit muscle LD; 10 mmol/liter pyruvate): 2%
Percent inhibition, Preincubation method, Muscle (LD from human muscle [5]): 17.3 ± 12.2%
Percent inhibition, Present method, Muscle (LD from human muscle [6]): 16.1 ± 11.8%
Percent inhibition, Preincubation method, Spleen (LD from human spleen [7]): 41.3 ± 8.5%
Percent inhibition, Present method, Kidney (LD from human kidney [8]): 53.1 ± 5.0%
Percent inhibition, Preincubation method, Kidney (LD from human kidney [9]): 53.0 ± 15.1%
pH for maximum inhibition of LD activity (chicken heart LD): 7
inhibition of chicken heart LD (chicken heart LD; pH 8 and above): no inhibition was seen
Percent inhibition, Preincubation method, Heart (LD from human heart [10]): 61.1 ± 8.3%
Percent inhibition, Heart (LD from human heart [11]; 5 mmol/liter pyruvate, pH 6): 90%
Percent inhibition, Heart (LD from human heart [11]; 5 mmol/liter pyruvate, pH 7): 69%
Percent inhibition, Heart (LD from human heart [11]; 5 mmol/liter pyruvate, pH 8): 40%
Percent inhibition, Heart (LD from human heart [11]; 10 mmol/liter pyruvate, pH 6): 91%
Percent inhibition, Heart (LD from human heart [11]; 10 mmol/liter pyruvate, pH 7): 79%
Percent inhibition, Heart (LD from human heart [11]; 10 mmol/liter pyruvate, pH 8): 50%
Percent inhibition, Present method, Heart (LD from human heart [11]; [13]): 60.8 ± 10.8%
Percent inhibition, Preincubation method, Liver (LD from human liver [12]): 18.3 ± 10.0%
inhibition of the M-type LD (M-type LD): slight inhibition
